Laboratory results published in ChEMBL document CHEMBL5360544, “Design, synthesis, and biological evaluation of diaryl heterocyclic derivatives targeting tubulin polymerization with potent anticancer activities” (Eur J Med Chem, 2023).
Calls of active or inactive are those of the source. The calls are words filed in the database; no cut-off is given here.

Legend:
[1] = Metabolic stability in rat liver microsomes assessed as half life preincubated for 2 hrs followed by NADPH regenerating system addition and measured upto 4 hrs by LC-MS method; type: ADME, Microsome; details: time < 6 hrs
HCT-116 [2] = test: Antitumor activity against human HCT-116 cells xenografted in nude mouse assessed as reduction in tumor weight at 50 mg/kg, po administered for 20 days and measured every 2 days; type: functional; design: scale not given: the % may be the effect or the level left; details: time 20 day
HepG2 = test: Antiproliferative activity against human HepG2 cells incubated for 48 hrs by CCK-8 assay; type: functional, cell-based; details: HepG2, 48 h
HCT-116 [3] = test: Antiproliferative activity against human HCT-116 cells incubated for 48 hrs by CCK-8 assay; type: functional, cell-based; details: HCT-116, 48 h
[4] = Toxicity in mouse xenografted with human HCT-116 cells assessed as reduction in liver damage at 50 mg/kg, po administered for 20 days and measured every 2 days by H and E staining based method; type: organism-based; details: in vivo, 480 h, time 20 day
[5] = Metabolic stability in human liver microsomes assessed as half life preincubated for 2 hrs followed by NADPH regenerating system addition and measured upto 4 hrs by LC-MS method; type: ADME, Microsome; details: time < 6 hrs
[6] = Toxicity in mouse xenografted with human HCT-116 cells assessed as reduction in kidney damage at 50 mg/kg, po administered for 20 days and measured every 2 days by H and E staining based method; type: organism-based; details: in vivo, 480 h, time 20 day
MDA-MB-231 = test: Antiproliferative activity against human MDA-MB-231 cells incubated for 48 hrs by CCK-8 assay; type: functional, cell-based; details: MDA-MB-231, 48 h
HeLa = test: Antiproliferative activity against human HeLa cells incubated for 48 hrs by CCK-8 assay; type: functional, cell-based
SW480 = test: Antiproliferative activity against human SW480 cells incubated for 48 hrs by CCK-8 assay; type: functional, cell-based; details: SW480, 48 h
[7] = Toxicity in mouse xenografted with human HCT-116 cells assessed as reduction in body weight at 50 mg/kg, po administered for 20 days and measured every 2 days; type: organism-based; details: in vivo, 480 h, time 20 day
[8] = Antiproliferative activity against human HEK293T cells incubated for 48 hrs by CCK-8 assay; type: toxicity, cell-based, HEK-293T
HCT-116 [9] = test: Antitumor activity against human HCT-116 cells xenografted in nude mouse assessed as reduction in tumor volume at 50 mg/kg, po administered for 20 days and measured every 2 days; type: functional; design: scale not given: the % may be the effect or the level left; details: time 20 day
HCT-116 [10] = test: Induction of apoptosis in human HCT-116 cells assessed as viable cells at 2 uM incubated for 24 hrs by Annexin V and PI staining based flow cytometry analysis (reference value: 99.63%); type: functional; details: read-out: Activity
HCT-116 [11] = test: Induction of apoptosis in human HCT-116 cells assessed as late apoptotic cells at 0.5 uM incubated for 24 hrs by Annexin V and PI staining based flow cytometry analysis (reference value: 0.07%); type: functional
Tubulin = Tubulin (Sus scrofa, UniProt P02554+P02550); test: Inhibition of pig brain tubulin polymerization incubated for […] by spectrophotometric method; type: tissue-based
Tubulin (Homo sapiens) [12] = molecular target: T1, Tubulin (Homo sapiens) (UniProt P68371+Q9H4B7+P0DPH7+P68366+Q13509+Q71U36+P04350+Q3ZCM7+P07437+P68363+Q9BQE3+Q6PEY2+Q13885+Q9BVA1+Q9BUF5); test: Induction of microtubule depolymerization in human HCT-116 cells assessed as appearance of short microtubules at 160 nM by immunofluorescent assay; type: cell-based
[13] = Toxicity in mouse xenografted with human HCT-116 cells assessed as reduction in liver damage at 50 to 100 mg/kg, po administered for 20 days and measured every 2 days by H and E staining based method; type: organism-based; details: in vivo, 480 h, dose 50-100 mg/kg, time 20 day
HCT-116 [14] = test: Induction of apoptosis in human HCT-116 cells assessed as necrotic cells at 2 uM incubated for 24 hrs by Annexin V and PI staining based flow cytometry analysis (reference value: 0.04%); type: functional
HCT-116 [15] = test: Induction of apoptosis in human HCT-116 cells assessed as early apoptotic cells at 0.5 uM incubated for 24 hrs by Annexin V and PI staining based flow cytometry analysis (reference value: 0.26%); type: functional
HCT-116 [16] = test: Antitumor activity against human HCT-116 cells xenografted in nude mouse assessed as reduction in tumor weight at 100 mg/kg, po administered for 20 days and measured every 2 days; type: functional, organism-based; details: time 20.0 day
HCT-116 [17] = test: Induction of apoptosis in human HCT-116 cells assessed as viable cells at 0.5 uM incubated for 24 hrs by Annexin V and PI staining based flow cytometry analysis (reference value: 99.63%); type: functional; details: read-out: Activity
HCT-116 [18] = test: Induction of cell cycle arrest in human HCT-116 cells assessed as increase in G2/M phase cells incubated for 48 hrs by PI staining based flow cytometry analysis; type: functional; details: dose 0.5-2 µM
Tubulin (Homo sapiens) [19] = molecular target: T1, Tubulin (Homo sapiens); test: Induction of microtubule depolymerization in human HCT-116 cells assessed as appearance of short microtubules at 40 nM by immunofluorescent assay; type: cell-based
HCT-116 [20] = test: Induction of apoptosis in human HCT-116 cells assessed as early apoptotic cells at 0.125 uM incubated for 24 hrs by Annexin V and PI staining based flow cytometry analysis (reference value: 0.26%); type: functional
HCT-116 [21] = test: Induction of apoptosis in human HCT-116 cells assessed as late apoptotic cells at 2 uM incubated for 24 hrs by Annexin V and PI staining based flow cytometry analysis (reference value: 0.07%); type: functional
HCT-116 [22] = test: Induction of apoptosis in human HCT-116 cells assessed as early apoptotic cells at 2 uM incubated for 24 hrs by Annexin V and PI staining based flow cytometry analysis (reference value: 0.26%); type: functional
HCT-116 [23] = test: Inhibition of colony formation in human HCT-116 cells incubated with compound for 24 hrs followed by media replacement and measured after 10 days by crystal violet staining based assay; type: functional, cell-based; details: dose 0.5-2 µM
Tubulin (Homo sapiens) [24] = molecular target: T1, Tubulin (Homo sapiens); test: Induction of microtubule depolymerization in human HCT-116 cells assessed as appearance of microtubules wrapped around nucleus at 160 nM by immunofluorescent assay; type: cell-based
[25] = Toxicity in mouse xenografted with human HCT-116 cells assessed as reduction in body weight at 50 to 100 mg/kg, po administered for 20 days and measured every 2 days; type: organism-based; details: in vivo, 480 h, dose 50-100 mg/kg, time 20 day
HCT-116 [26] = test: Antitumor activity against human HCT-116 cells xenografted in nude mouse assessed as reduction in tumor volume at 100 mg/kg, po administered for 20 days and measured every 2 days; type: functional, organism-based; details: time 20.0 day
HCT-116 [27] = test: Induction of apoptosis in human HCT-116 cells assessed as necrotic cells at 0.125 uM incubated for 24 hrs by Annexin V and PI staining based flow cytometry analysis (reference value: 0.04%); type: functional
HCT-116 [28] = test: Inhibition of colony formation in human HCT-116 cells at 2 uM incubated with compound for 24 hrs followed by media replacement and measured after 10 days by crystal violet staining based assay; type: functional
HCT-116 [29] = test: Induction of apoptosis in human HCT-116 cells assessed as viable cells at 0.125 uM incubated for 24 hrs by Annexin V and PI staining based flow cytometry analysis (reference value: 99.63%); type: functional; details: read-out: Activity
HCT-116 [30] = test: Induction of apoptosis in human HCT-116 cells assessed as late apoptotic cells at 0.125 uM incubated for 24 hrs by Annexin V and PI staining based flow cytometry analysis (reference value: 0.07%); type: functional
HCT-116 [31] = test: Induction of apoptosis in human HCT-116 cells assessed as necrotic cells at 0.5 uM incubated for 24 hrs by Annexin V and PI staining based flow cytometry analysis (reference value: 0.04%); type: functional
Tubulin (Homo sapiens) [32] = molecular target: T1, Tubulin (Homo sapiens); test: Induction of microtubule depolymerization in human HCT-116 cells assessed as appearance of microtubules wrapped around nucleus at 40 nM by immunofluorescent assay; type: cell-based
[33] = Toxicity in mouse xenografted with human HCT-116 cells assessed as reduction in kidney damage at 50 to 100 mg/kg, po administered for 20 days and measured every 2 days by H and E staining based method; type: organism-based; details: in vivo, 480 h, dose 50-100 mg/kg, time 20 day

COc1ccc(/C=C\c2cc(OC)c(OC)c(OC)c2)cc1O [COMBRETASTATIN A4]
half-life [1]: 2.3 min | Activity (HCT-116 [2]): 28.8% | IC50 (HepG2): 1360 nM | IC50 (HCT-116 [3]): 2320 nM | Activity [4]: Non-Toxic | half-life [5]: 9.5 min | Activity [6]: Non-Toxic | IC50 (MDA-MB-231): 2130 nM | IC50 (HeLa): 630 nM | IC50 (SW480): 40000 nM | Activity [7]: Non-Toxic | IC50 at 48 h [8]: > 80000 nM | Activity (HCT-116 [9]): 31.4%

COc1cc(-c2ccnn2-c2ccc(N)cc2)cc(OC)c1OC
viability at 2 µM (HCT-116 [10]): 3.22% | half-life [1]: 6.9 min | Activity (HCT-116 [2]): 27% | IC50 (HepG2): 1540 nM | IC50 (HCT-116 [3]): 2650 nM | Activity (HCT-116 [11]): 28.79% | IC50 (Tubulin): 8400 nM | Activity (Tubulin (Homo sapiens) [12]): Active | half-life [5]: 106 min | Activity [13]: Non-Toxic | Activity (HCT-116 [14]): 1.72% | Activity (HCT-116 [15]): 61.42% | Activity (HCT-116 [16]): inactive | viability at 0.5 µM (HCT-116 [17]): 4.92% | Activity (HCT-116 [18]): Dose-Dependent Effect | Activity (Tubulin (Homo sapiens) [19]): Active | Activity (HCT-116 [20]): 46.19% | IC50 (MDA-MB-231): 11400 nM | IC50 (HeLa): 24600 nM | IC50 (SW480): 37500 nM | Activity (HCT-116 [21]): 19.38% | Activity (HCT-116 [22]): 75.68% | inhibition (HCT-116 [23]): Dose-Dependent Effect | Activity (Tubulin (Homo sapiens) [24]): Active | Activity [25]: Non-Toxic | Activity (HCT-116 [26]): inactive | Activity (HCT-116 [27]): 2.17% | inhibition at 2 µM (HCT-116 [28]): 100% | viability at 0.125 µM (HCT-116 [29]): 2.2% | Activity (HCT-116 [30]): 49.45% | Activity (HCT-116 [31]): 4.87% | IC50 at 48 h [8]: > 80000 nM | Activity (Tubulin (Homo sapiens) [32]): Active | Activity (HCT-116 [9]): 44.1% | Activity [33]: Non-Toxic
